Laboratory results from patent US8598344B2, “CDKI pathway inhibitors and uses thereof” (Senex Biotechnology, priority 2009, dated 2013).
Like-named read-outs stand apart in the source and are kept apart here.

Key:
[1] = system: induction of transcription by p21 (CDKI pathway, CMV promoter-GFP) in HT1080 fibrosarcoma cells; test: Cellular assay for CDKI pathway inhibition: CMV-GFP induction by IPTG-inducible p21 in HT1080 reporter cells; type: cell-based, human
Description: Briefly, the reporter cell line described in the above-referenced application, which carries IPTG (isopropyl-β-thio-galactoside)-inducible p21 gene together with a p21-inducible promoter driving the expression of Green Fluorescent Protein (GFP) was plated in 96-well plates, at 2000 cells per well for the no-IPTG arm of the assay and at 5000 cells per well for the IPTG arm of the assay. To induce the maximal levels of p21, IPTG was added to 50 μM concentration. Serial 2-fold dilutions of the tested compounds were added in quadruplicates to wells with and without IPTG, ˜10 min after IPTG addition.
This assay is based on the induction of green fluorescent protein (GFP) expression from the cytomegalovirus (CMV) promoter in human HT1080 fibrosarcoma cells that express CDKI p21 from an isopropyl-(3-thio-galactoside (IPTG)-inducible promoter. The compound activity as a CDKI pathway inhibitor is measured by its ability to prevent the stimulation of the CMV promoter upon the addition of p21-inducing IPTG. CMV promoter activity is measured by the ratio of GFP fluorescence to the relative cell number, as determined by staining cellular DNA with Hoechst 33342. This assay was conducted in two modes. […]

[2] = target: T1, CDK8 (Homo sapiens, UniProt P49336); test: KinomeScan competition binding assay; conditions: read-out: CDK8 inhibition (Kd)
T1 construct: purchased KinomeScan, a division of Ambit Biosciences
From the text: (§1) This similarity led us to test SNX14 for the ability to inhibit 285 kinases, using the services of KinaseProfiler of Millipore Corporation (285 kinases). […] The KINOMEscan assay has been described in detail in Fabian et al., Nat. Biotechnol. 23: 329 (2005) and Karaman et al., Nat. Biotechnol. 26: 127 (2008).
(§2) The KinomeScan assay is based on a competition binding assay that quantitatively measures the ability of a compound to compete with an immobilized, ATP site directed ligand. The assay is performed by combining three components: DNA-tagged kinase; immobilized ligand; and a test compound. The ability of the test compound to compete with the immobilized ligand is measured via quantitative PCR of the DNA tag. […] The CDKs tested by Millipore for inhibition with SNX14 included CDK1, CDK2, CDK3, CDK5, CDK7 and CDK9; none of these were inhibited to less than 49 percent of control (POC) activity. The CDKs tested by KinomeScan for the effect of Compound 1 included CDK2, CDK3, CDK4, CDK5, CDK7, CDK8, CDK9 and CDK19; aside from CDK8 and CDK19, the strongest inhibited CDK was CDK7 (33% POC binding). To determine the inhibition of which kinases correlates with the biological activity of SNX2-class compounds, we tested eight additional compounds of the SNX2 family, which gave different IC50 values in the cellular assays, for the ability to affect 24 kinases that were most susceptible to compound 1, through the services of KinomeScan. […] We have also determined the binding constant (Kd) for SNX14, compound 1, compound 20, compound 26, compound 43 and compound 14 in kinase assays for CDK8 and CDK19 (Table 1).

[3] = target: T2, CDK19 (Homo sapiens, UniProt Q9BWU1); test: KinomeScan competition binding assay; conditions: read-out: CDK19 inhibition (Kd)
T2 construct: purchased KinomeScan, a division of Ambit Biosciences
T2 sequence (Q9BWU1 whole entry): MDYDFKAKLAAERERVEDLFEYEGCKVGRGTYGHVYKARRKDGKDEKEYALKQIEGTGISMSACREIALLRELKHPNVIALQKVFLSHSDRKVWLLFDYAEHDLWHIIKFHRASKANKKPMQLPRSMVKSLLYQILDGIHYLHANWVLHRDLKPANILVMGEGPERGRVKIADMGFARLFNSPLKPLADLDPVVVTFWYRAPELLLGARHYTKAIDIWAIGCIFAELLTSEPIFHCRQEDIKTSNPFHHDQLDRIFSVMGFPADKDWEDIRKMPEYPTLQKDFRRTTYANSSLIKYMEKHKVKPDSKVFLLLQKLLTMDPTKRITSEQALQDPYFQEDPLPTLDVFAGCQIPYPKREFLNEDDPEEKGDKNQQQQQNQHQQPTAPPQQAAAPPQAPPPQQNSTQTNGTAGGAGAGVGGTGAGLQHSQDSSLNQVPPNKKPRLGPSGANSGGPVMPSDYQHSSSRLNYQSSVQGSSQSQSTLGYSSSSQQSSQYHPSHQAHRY
From the text: as §1, §2

[4] = target: T3, CDK1 (Homo sapiens, UniProt P06493); test: KinaseProfiler (Millipore) kinase inhibition; type: biochemical; conditions: 10 μM
T3 construct: purchased KinaseProfiler of Millipore Corporation
From the text: as §1, §2

[5] = target: T4, CDK5 (Homo sapiens, UniProt Q00535); test: KinaseProfiler (Millipore) kinase inhibition; type: biochemical; conditions: 10 μM
T4 construct: purchased KinaseProfiler of Millipore Corporation
From the text: as §1, §2

[6] = target: T5, CDK3 (Homo sapiens, UniProt Q00526); test: KinaseProfiler (Millipore) kinase inhibition; type: biochemical; conditions: 10 μM
T5 construct: purchased KinaseProfiler of Millipore Corporation
T5 sequence (Q00526 whole entry): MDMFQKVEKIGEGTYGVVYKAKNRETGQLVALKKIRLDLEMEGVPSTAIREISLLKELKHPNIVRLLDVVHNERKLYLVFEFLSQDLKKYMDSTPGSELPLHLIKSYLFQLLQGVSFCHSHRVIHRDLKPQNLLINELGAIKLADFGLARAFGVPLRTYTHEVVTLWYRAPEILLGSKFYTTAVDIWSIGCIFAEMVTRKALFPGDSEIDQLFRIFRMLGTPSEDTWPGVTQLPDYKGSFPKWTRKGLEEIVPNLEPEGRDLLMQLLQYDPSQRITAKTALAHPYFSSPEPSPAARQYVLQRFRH
T5 sequence (P24864 whole entry partner): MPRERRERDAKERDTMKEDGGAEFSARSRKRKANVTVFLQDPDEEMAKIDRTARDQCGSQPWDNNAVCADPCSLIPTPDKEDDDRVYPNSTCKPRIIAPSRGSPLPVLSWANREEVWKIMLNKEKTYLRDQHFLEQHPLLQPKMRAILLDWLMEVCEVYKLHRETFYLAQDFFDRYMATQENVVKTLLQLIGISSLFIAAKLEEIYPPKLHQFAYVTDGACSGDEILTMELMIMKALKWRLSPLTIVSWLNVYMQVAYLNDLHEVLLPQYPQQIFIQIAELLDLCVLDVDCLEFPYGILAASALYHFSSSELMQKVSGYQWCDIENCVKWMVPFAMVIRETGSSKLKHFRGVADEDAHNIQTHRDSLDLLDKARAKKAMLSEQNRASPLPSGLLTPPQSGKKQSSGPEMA
From the text: as §1, §2

[7] = target: T6, CDK9 (Homo sapiens, UniProt P50750); test: KinaseProfiler (Millipore) kinase inhibition; type: biochemical; conditions: 10 μM
T6 construct: purchased KinaseProfiler of Millipore Corporation
T6 sequence (P50750 whole entry): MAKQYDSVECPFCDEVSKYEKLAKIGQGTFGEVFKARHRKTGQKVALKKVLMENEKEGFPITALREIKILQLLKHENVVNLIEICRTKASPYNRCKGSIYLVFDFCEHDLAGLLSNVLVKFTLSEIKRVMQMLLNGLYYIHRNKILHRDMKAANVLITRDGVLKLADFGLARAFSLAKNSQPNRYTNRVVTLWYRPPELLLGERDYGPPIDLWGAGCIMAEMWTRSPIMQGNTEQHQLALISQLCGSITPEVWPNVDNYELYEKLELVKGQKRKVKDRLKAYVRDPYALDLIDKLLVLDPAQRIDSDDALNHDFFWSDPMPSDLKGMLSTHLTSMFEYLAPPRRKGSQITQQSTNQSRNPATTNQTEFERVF
T6 sequence (O60563 whole entry partner): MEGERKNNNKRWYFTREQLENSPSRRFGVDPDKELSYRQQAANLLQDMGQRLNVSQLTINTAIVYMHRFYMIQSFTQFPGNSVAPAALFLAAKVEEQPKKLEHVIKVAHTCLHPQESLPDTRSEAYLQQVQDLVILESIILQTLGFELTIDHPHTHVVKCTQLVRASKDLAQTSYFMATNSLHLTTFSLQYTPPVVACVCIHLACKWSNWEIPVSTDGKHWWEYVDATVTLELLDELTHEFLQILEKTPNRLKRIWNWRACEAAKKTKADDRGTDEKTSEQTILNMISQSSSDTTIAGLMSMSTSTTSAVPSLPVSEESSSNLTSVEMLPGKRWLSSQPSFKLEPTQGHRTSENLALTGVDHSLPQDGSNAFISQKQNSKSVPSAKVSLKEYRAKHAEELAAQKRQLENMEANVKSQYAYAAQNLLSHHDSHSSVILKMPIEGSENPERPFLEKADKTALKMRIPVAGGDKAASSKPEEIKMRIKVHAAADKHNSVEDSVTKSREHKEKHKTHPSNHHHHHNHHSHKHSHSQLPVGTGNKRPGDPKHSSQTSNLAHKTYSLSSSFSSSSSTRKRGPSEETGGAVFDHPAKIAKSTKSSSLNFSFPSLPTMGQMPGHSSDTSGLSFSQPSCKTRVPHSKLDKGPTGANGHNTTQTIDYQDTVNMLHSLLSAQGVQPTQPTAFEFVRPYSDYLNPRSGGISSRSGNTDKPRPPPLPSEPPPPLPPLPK
From the text: as §1, §2

[8] = target: T7, CDK2 (Homo sapiens, UniProt P24941); test: KinaseProfiler (Millipore) kinase inhibition; type: biochemical; conditions: 10 μM
T7 construct: purchased KinaseProfiler of Millipore Corporation
From the text: as §1, §2

[9] = target: CDK7 (Homo sapiens, UniProt P50613); test: KinaseProfiler (Millipore) kinase inhibition; type: biochemical; design: purchased KinaseProfiler of Millipore Corporation; conditions: 10 μM
From the text: as §1
as §2, with “binding).” for “binding). To determine the inhibition of which kinases correlates with the biological activity of SNX2-class compounds, we tested eight additional compounds of the SNX2 family, which gave different IC50 values in the cellular assays, for the ability to affect 24 kinases that were most susceptible to compound 1, through the services of KinomeScan.”

[10] = target: T8, PRKG2 (Homo sapiens, UniProt Q13237); conditions: 10 μM; data from Cee et al. (2009); cited from earlier work
T8 construct: purchased KinomeScan, a division of Ambit Biosciences

[11] = system: human umbilical vein endothelial cells (HUVECs); conditions: Aoki et al., 2007; read-out: IC50, proliferation of HUVECs; cited from earlier work
[12] = system: several other types of human cells; conditions: Aoki et al., 2007; read-out: antiproliferative activity against several other types of human cells; cited from earlier work
[13] = target: T9, ALK (Homo sapiens, UniProt Q9UM73); conditions: 10 μM; data from Cee et al. (2009); cited from earlier work
T9 construct: purchased KinomeScan, a division of Ambit Biosciences

[14] = target: T10, ROS1 (Homo sapiens, UniProt P08922); conditions: 10 μM; data from Cee et al. (2009); cited from earlier work
T10 construct: purchased KinomeScan, a division of Ambit Biosciences

[15] = target: T2, CDK19; conditions: cited from earlier work
[16] = target: T11, PIM2 (Homo sapiens, UniProt Q9P1W9); conditions: 10 μM; data from Cee et al. (2009); cited from earlier work
T11 construct: purchased KinomeScan, a division of Ambit Biosciences

[17] = target: T12, PKACa (Homo sapiens, UniProt P17612); conditions: 10 μM; data from Cee et al. (2009); cited from earlier work
T12 construct: purchased KinomeScan, a division of Ambit Biosciences

[18] = target: T13, ROCK1 (Homo sapiens, UniProt Q13464); conditions: cited from earlier work
T13 construct: purchased KinomeScan, a division of Ambit Biosciences
T13 sequence (Q13464 whole entry): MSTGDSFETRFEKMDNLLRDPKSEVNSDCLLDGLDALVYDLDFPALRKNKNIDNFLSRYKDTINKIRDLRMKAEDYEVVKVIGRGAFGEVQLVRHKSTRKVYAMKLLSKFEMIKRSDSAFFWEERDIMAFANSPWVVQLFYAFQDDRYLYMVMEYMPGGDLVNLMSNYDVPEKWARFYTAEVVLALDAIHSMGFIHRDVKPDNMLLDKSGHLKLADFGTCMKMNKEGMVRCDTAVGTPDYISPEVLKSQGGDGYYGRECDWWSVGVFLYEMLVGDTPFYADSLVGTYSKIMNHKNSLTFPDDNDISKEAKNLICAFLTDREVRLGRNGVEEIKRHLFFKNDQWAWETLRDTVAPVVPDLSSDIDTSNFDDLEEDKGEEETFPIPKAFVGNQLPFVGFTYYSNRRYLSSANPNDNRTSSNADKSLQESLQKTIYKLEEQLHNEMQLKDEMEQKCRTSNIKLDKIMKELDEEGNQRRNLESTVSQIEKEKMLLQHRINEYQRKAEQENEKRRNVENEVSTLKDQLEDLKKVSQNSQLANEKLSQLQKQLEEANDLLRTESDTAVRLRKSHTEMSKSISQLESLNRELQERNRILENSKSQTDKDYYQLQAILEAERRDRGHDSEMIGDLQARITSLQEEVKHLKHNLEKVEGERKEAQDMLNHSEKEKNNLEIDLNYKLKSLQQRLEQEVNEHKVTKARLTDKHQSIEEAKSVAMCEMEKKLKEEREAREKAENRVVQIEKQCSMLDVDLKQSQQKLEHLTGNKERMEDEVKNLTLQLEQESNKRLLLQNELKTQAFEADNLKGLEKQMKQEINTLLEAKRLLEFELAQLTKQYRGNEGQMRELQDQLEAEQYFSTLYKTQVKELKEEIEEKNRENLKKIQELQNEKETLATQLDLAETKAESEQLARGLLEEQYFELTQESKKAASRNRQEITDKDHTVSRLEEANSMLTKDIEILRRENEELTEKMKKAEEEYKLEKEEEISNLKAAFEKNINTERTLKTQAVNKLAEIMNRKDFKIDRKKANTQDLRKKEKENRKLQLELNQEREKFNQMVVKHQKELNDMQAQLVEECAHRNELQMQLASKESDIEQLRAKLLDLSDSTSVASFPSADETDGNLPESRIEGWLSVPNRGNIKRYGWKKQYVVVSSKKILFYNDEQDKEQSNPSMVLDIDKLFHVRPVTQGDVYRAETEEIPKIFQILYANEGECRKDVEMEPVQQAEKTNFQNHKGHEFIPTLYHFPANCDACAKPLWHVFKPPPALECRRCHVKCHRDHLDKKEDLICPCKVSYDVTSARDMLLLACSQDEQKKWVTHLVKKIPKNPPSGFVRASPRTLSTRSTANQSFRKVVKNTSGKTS

[19] = target: T14, CLK4 (Homo sapiens, UniProt Q9HAZ1); conditions: 10 μM; data from Cee et al. (2009); cited from earlier work
T14 construct: purchased KinomeScan, a division of Ambit Biosciences

[20] = target: T15, CIT (Homo sapiens, UniProt O14578); conditions: 10 μM; data from Cee et al. (2009); cited from earlier work
T15 construct: purchased KinomeScan, a division of Ambit Biosciences

[21] = target: T16, LTK (Homo sapiens, UniProt P29376); conditions: 10 μM; data from Cee et al. (2009); cited from earlier work
T16 construct: purchased KinomeScan, a division of Ambit Biosciences

[22] = target: T17, MET (Homo sapiens, UniProt P08581); conditions: 10 μM; data from Cee et al. (2009); cited from earlier work
T17 construct: purchased KinomeScan, a division of Ambit Biosciences

[23] = target: T18, JNK1 (Homo sapiens, UniProt P45983); conditions: 10 μM; data from Cee et al. (2009); cited from earlier work
T18 construct: purchased KinomeScan, a division of Ambit Biosciences

[24] = target: T19, PKACb (Homo sapiens, UniProt P22694); conditions: 10 μM; data from Cee et al. (2009); cited from earlier work
T19 construct: purchased KinomeScan, a division of Ambit Biosciences

[25] = target: T20, RIOK2 (Homo sapiens, UniProt Q9BVS4); conditions: 10 μM; data from Cee et al. (2009); cited from earlier work
T20 construct: purchased KinomeScan, a division of Ambit Biosciences

[26] = target: T21, ROCK2 (Homo sapiens, UniProt O75116); conditions: cited from earlier work
T21 construct: purchased KinomeScan, a division of Ambit Biosciences
T21 sequence (O75116 whole entry): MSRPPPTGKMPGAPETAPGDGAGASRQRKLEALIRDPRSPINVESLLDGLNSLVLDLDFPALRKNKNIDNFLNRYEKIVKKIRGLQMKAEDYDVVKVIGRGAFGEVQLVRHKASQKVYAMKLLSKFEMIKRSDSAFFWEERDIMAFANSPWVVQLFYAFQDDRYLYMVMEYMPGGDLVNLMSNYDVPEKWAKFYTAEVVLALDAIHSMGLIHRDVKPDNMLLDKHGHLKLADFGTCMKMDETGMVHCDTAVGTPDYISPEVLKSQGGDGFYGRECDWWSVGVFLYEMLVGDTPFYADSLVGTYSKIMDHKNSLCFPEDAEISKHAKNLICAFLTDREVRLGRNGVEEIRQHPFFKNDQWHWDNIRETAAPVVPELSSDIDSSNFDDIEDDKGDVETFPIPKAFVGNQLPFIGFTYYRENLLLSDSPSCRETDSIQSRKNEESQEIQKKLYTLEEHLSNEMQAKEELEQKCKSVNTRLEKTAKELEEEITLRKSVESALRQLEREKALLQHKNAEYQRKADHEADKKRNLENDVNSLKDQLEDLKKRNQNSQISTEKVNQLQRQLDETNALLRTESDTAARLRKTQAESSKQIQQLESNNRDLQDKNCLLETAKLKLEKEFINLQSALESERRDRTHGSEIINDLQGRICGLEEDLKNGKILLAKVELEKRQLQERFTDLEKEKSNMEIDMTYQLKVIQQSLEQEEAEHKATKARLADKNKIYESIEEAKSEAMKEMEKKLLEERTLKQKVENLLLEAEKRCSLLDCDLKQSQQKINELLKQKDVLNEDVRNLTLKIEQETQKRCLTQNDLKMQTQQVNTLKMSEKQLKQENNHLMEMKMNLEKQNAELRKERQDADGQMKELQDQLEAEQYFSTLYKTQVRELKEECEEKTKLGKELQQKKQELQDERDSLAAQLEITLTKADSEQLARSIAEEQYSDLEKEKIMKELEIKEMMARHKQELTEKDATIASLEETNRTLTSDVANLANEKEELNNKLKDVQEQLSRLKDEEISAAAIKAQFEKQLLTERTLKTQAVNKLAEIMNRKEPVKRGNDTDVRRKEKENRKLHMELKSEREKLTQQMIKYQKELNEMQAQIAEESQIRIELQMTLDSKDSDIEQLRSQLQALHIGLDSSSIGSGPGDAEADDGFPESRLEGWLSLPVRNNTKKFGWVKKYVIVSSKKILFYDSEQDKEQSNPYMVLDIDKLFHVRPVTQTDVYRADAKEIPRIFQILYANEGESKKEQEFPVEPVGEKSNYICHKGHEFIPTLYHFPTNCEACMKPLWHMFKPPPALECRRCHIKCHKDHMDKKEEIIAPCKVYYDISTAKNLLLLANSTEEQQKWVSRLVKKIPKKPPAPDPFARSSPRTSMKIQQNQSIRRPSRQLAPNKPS

[27] = 10 μM, data from Cee et al. (2009)

COc1cc2ncnc(Nc3ccc(F)c(Cl)c3)c2cc1OCCCN1CCOCC1 [gefitinib, reference compound]
CDKI pathway inhibition [1]: inactive

CC(C)Nc1ncnc2ccc(I)cc12 [SNX14]
Kd [2]: 10000 nM
Kd [3]: 3800 nM
percent of control (POC) activity, CDK1 [4]: ≥ 49% of control (POC)
percent of control (POC) activity, CDK5 [5]: ≥ 49% of control (POC)
percent of control (POC) activity, CDK3 [6]: ≥ 49% of control (POC)
percent of control (POC) activity, CDK9 [7]: ≥ 49% of control (POC)
percent of control (POC) activity, CDK2 [8]: ≥ 49% of control (POC)
IC50 ([1]; Table 1, IC50 calculated on the basis of the maximal inhibition produced by the highest doses, IPTG mode (50 μM or 2 μM) not stated, read-out: Cell-based assay (IC50)): 6430 nM
percent of control (POC) activity, CDK7 [9]: ≥ 49% of control (POC)

Ic1ccc2ncnc(NCCc3ccccc3)c2c1 [compound 3]
IC50 ([1]; read-out: IC50, p21 induced by 8 μM IPTG, 8 μM IPTG, 72 hours): 1850 nM

cortistatin A
POC, PRKG2 [10]: 21 POC
IC50 [11]: 1.8 nM
IC50 [12]: 6000 to 7000 nM
POC, ALK [13]: 4.4 POC
POC, ROS1 [14]: 26 POC
POC, CDK19 [15, 27]: 0.1 POC
Kd ([15]; Cee et al. (2009)): 10 nM
POC, PIM2 [16]: 4.4 POC
POC, PKACa [17]: 8.7 POC
POC, ROCK1 [18, 27]: 21 POC
Kd ([18]; Cee et al. (2009), read-out: Kd ROCK I): 250 nM
POC, CLK4 [19]: 26 POC
POC, CIT [20]: 28 POC
POC, LTK [21]: 2.9 POC
POC, MET [22]: 18 POC
POC, JNK1 [23]: 29 POC
POC, PKACb [24]: 13 POC
POC, RIOK2 [25]: 21 POC
POC, ROCK2 (ROCK II) [26, 27]: 0 POC
Kd ([26]; Cee et al. (2009), read-out: Kd ROCK II): 220 nM
